Laboratory results from paper PMC11714206, “Massively Parallel Screening of Toll/Interleukin‐1 Receptor (TIR)‐Derived Peptides Reveals Multiple Toll‐Like Receptors (TLRs)‐Targeting Immunomodulatory Peptides” (Advanced Science, 2024).

Molecular target: T1, MyD88^TIR (Homo sapiens, UniProt Q99836)
T1 construct: MyD88 (residues 148–296); 6xHis; made in house; host or cells: E. coli BL21 (DE3)
Experiment: T‐Surf phage library (P8 and P3) selection against MyD88^TIR, four rounds, NGS read counts
Format: binding
Conditions: for P8_MyD88 Rank (after) / P8_MyD88 Rank (before): P8 library; for P3_MyD88 Rank (after) / P3_MyD88 Rank (before): P3 library; for Population: 4th round of selection against MyD88 TIR, share of NGS reads
Method in brief: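 Four panning rounds on TIR domain adsorbed at 5 µg mL^−1; binding 1 h at 20–22 °C, elution with 100 mM HCl. Output: NGS read counts of round‐4 pools versus naïve library.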

[1] = P3_MyD88: rank by count after grouping
[2] = P3_MyD88: rank by count before grouping
[3] = selection against MyD88 TIR, rank by count after grouping
[4] = selection against MyD88 TIR, rank by count before grouping
[5] = selection against MyD88, rank by count after grouping
[6] = selection against MyD88, rank by count before grouping
[7] = 4R selection against MyD88, rank after grouping
[8] = 4R selection against MyD88, rank before grouping
[9] = selection against MyD88, rank after grouping
[10] = selection against MyD88, rank before grouping
[11] = P3_MyD88 pool: P3 T-Surf phage library
[12] = P8_MyD88: rank by count after grouping
[13] = P8_MyD88: rank by count before grouping
[14] = P8_MyD88 pool: P8 T-Surf phage library
[15] = P8_MyD88: rank by NGS read count after grouping
[16] = P8_MyD88: rank by NGS read count before grouping

T1 sequence (Q99836 148-296): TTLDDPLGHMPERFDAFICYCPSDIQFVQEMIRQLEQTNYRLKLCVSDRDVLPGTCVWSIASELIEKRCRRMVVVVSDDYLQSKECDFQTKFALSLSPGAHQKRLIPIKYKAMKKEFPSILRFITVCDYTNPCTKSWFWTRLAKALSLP

ESILNHMRRSSQSIAN
Rank (after) [1]: 481 | Rank (before) [2]: 2231

EWALHQLQQIIKWHQT
P8_MyD88 Rank (after) [3]: 212 | P8_MyD88 Rank (before) [4]: 323

EWFYERLFSQMRKDIK
P8_MyD88 Rank (after) [3]: 275 | P8_MyD88 Rank (before) [4]: 586

EWGDPYFWSKLRYAM
P3_MyD88 Rank (after) [5]: 695 | P3_MyD88 Rank (before) [6]: 2125

EWILSKLSQHILKREK
P3_MyD88 Rank (after) [7]: 632 | P3_MyD88 Rank (before) [8]: 2128

EWIREHLRLALKERLP
Rank (after) [1]: 446 | Rank (before) [2]: 2130

EWIREQFRRALKERLP
P3_MyD88 Rank (after) [9]: 503 | P3_MyD88 Rank (before) [10]: 2131

EWIREQLCLALKERLP
P3_MyD88 Rank (after) [7]: 637 | P3_MyD88 Rank (before) [8]: 2133

EWIREQLHPALNERLP
P3_MyD88 Rank (after) [5]: 742 | P3_MyD88 Rank (before) [6]: 2176

EWIREQLRPALDELVL
Rank (after) [1]: 165 | Rank (before) [2]: 648

EWIREQLRPALEKAGKL
Rank (after) [1]: 144 | Rank (before) [2]: 649

EWIREQLRPALKAQ
Rank (after) [1]: 147 | Rank (before) [2]: 651

EWIREQLRPALKEHLP
Population [11]: 0.00437%

EWIREQLRPALKERL
Rank (after) [1]: 112 | Rank (before) [2]: 995

EWIREQLRPALKERLP
Population [11]: 0.00466%

EWIREQLRPALKERMT
P3_MyD88 Rank (after) [7]: 619 | P3_MyD88 Rank (before) [8]: 2151

EWIREQLRPALKNGW
Rank (after) [1]: 434 | Rank (before) [2]: 2155

EWIREQLRPALKNVC
P3_MyD88 Rank (after) [9]: 520 | P3_MyD88 Rank (before) [10]: 2142

EWIREQLRPELQERLP
Rank (after) [1]: 179 | Rank (before) [2]: 2160

EWIREQRRSALKERLP
P3_MyD88 Rank (after) [7]: 639 | P3_MyD88 Rank (before) [8]: 2171

EWIRTAASGAERTSA
Rank (after) [1]: 388 | Rank (before) [2]: 2178

EWIWDKLIYALSRNPH
P3_MyD88 Rank (after) [7]: 586 | P3_MyD88 Rank (before) [8]: 2127

EWLREQLRSARKERLP
Rank (after) [1]: 442 | Rank (before) [2]: 2126

EWMREQLRPPLKERLP
Rank (after) [1]: 421 | Rank (before) [2]: 2179

EWMREQRRPALKERLP
P3_MyD88 Rank (after) [7]: 599 | P3_MyD88 Rank (before) [8]: 2180

EWNRKQKRPDQKERLQ
P3_MyD88 Rank (after) [7]: 608 | P3_MyD88 Rank (before) [8]: 2185

EWSREQLRPALKESLP
P3_MyD88 Rank (after) [3]: 239 | P3_MyD88 Rank (before) [4]: 2184

EWVKNSLLQYLDSQFE
Rank (after) [12]: 151 | Rank (before) [13]: 166 | Population [14]: 0.00886%

EWVWDYLLPNLESPAG
Rank (after) [12]: 437 | Rank (before) [13]: 3162

EYRNESKSVWDIINAI
P8_MyD88 Rank (after) [7]: 642 | P8_MyD88 Rank (before) [8]: 3172

FAANPLSFHVRVKLGG
P8_MyD88 Rank (after) [9]: 501 | P8_MyD88 Rank (before) [10]: 1303

FDARTWFFQEMGIIVE
P8_MyD88 Rank (after) [7]: 603 | P8_MyD88 Rank (before) [8]: 1307

FDASSSWALDELLRILY
Rank (after) [12]: 404 | Rank (before) [13]: 813

FDASTWFFQEWARFL
Rank (after) [15]: 930 | Rank (before) [16]: 1313

FDASTWWLRELLQIA
Rank (after) [12]: 413 | Rank (before) [13]: 814

FDYELQQSLFHALIMR
P8_MyD88 Rank (after) [3]: 213 | P8_MyD88 Rank (before) [4]: 296

FFSGFRELEDFISKLW
Rank (after) [12]: 105 | Rank (before) [13]: 108 | Population [14]: 0.02%

FFSGFREQEDFISKRW
P8_MyD88 Rank (after) [5]: 681 | P8_MyD88 Rank (before) [6]: 1297

FFWMQLRSLLGTPGGL
P8_MyD88 Rank (after) [3]: 194 | P8_MyD88 Rank (before) [4]: 252

FGDHRMWWEDLVGIVD
P8_MyD88 Rank (after) [5]: 695 | P8_MyD88 Rank (before) [6]: 1302

FHGDELRDNFIRYLVW
P8_MyD88 Rank (after) [3]: 252 | P8_MyD88 Rank (before) [4]: 421

FIDFLFDAFETKGIFV
Rank (after) [12]: 103 | Rank (before) [13]: 107 | Population [14]: 0.0216%

FIRYLVWGLRDERLNL
P8_MyD88 Rank (after) [3]: 208 | P8_MyD88 Rank (before) [4]: 297

FISDLYEALTRAGILA
Rank (after) [15]: 964 | Rank (before) [16]: 1341

FLSYLALEKRFSPIGQ
P3_MyD88 Rank (after) [9]: 515 | P3_MyD88 Rank (before) [10]: 1343

FLSYRALEKRFGPLVQ
P3_MyD88 Rank (after) [9]: 536 | P3_MyD88 Rank (before) [10]: 1378

FLSYRALEKRFGRLA
P3_MyD88 Rank (after) [7]: 625 | P3_MyD88 Rank (before) [8]: 1351

FLSYREGLWRLLELSKK
P3_MyD88 Rank (after) [9]: 498 | P3_MyD88 Rank (before) [10]: 1376

FLSYRSLEKRFGPIGP
Rank (after) [1]: 190 | Rank (before) [2]: 1344

FRGEDIADNFLSHLVVAL
P8_MyD88 Rank (after) [3]: 234 | P8_MyD88 Rank (before) [4]: 371
